We go through ten compounds from paper PMC6530213, “Monitoring flux in signalling pathways through measurements of 4EBP1-mediated eIF4F complex assembly” (BMC Biology, 2019).

What is called IC50 is the concentration at which inhibition is half-maximal. Usually Kd stands for the constant that tells how readily two partners part at equilibrium.

Series [1] relates to eIF4E:eIF4G^604–646 complex. As to the kind of experiment: NanoBit eIF4E:eIF4G^604–646 protein complementation assay in HEK293 cells. It is filed as cell-based. To be noted: for Extent of disruption of NanoBit signal / eIF4F complex: HEK293, relative to eIF4G YLL-LgBit binding control or maximal dose of Torin. As to the method: (§1) Opaque 96-well plates were seeded with 20,000 HEK293 cells per well in DMEM and 10% FCS. Transfections in 96-well plate format were performed using FUGENE6 (Roche) with 100 ng of the indicated plasmid vectors per well as outlined in the manufacturer’s instructions (Fig. 1). Twenty-four hours after transfection, the medium was replaced with 100 μl of Opti-MEM I cell media containing 0% FCS with no added red phenol (Thermo Fisher Scientific) and luminescence activity assayed (as outlined in “NanoBit and cell viability experiments” section). Transfections utilising 4EBP1 constructs were performed with either 50 ng of the indicated construct or empty vector.
(§2) Twenty-four hours prior to transfection, cells (HEK293, PANC-1 or PC-3) were seeded at a cell density of 800,000 cells per well of a six-well plate (Thermo Fisher Scientific). Transfections in six-well plates were performed using Lipofectamine 3000 (Thermo Fisher Scientific) with 3 μg of the indicated plasmid vectors per well according to the manufacturer’s instructions. For knockdown experiment, siRNA Ctrl or 4EBP1 at a final concentration of 100 nM were included in the transfection mixture. Transfections utilising GFP and GFP-MYC contained 1 μg of each vector or empty vector, respectively. In the case of transfections utilising any of the 4EBP1 constructs described, only 0.5 μg of each vector or empty vector was used, respectively. After a 24- or 48-h (as indicated in the figure legends) incubation period, the medium was removed and cells were washed with PBS saline. Cells were then either lysed directly for immunoprecipitation experiments or were trypsinised and re-suspended in Opti-MEM media with 0% FCS to perform NanoBit and cell viability experiments in a 96-well format.
(§3) Either HEK293, PC-3 or PANC-1 cells were spun down at 1000 rpm for 5 min at room temperature. Supernatant was then discarded, and cells re-suspended to a density of to 220,000 cells per millilitre in Opti-MEM I cell media containing 0% FBS with no added red phenol. Then 90 μl of the cell re-suspension was added to the wells of a white opaque 96-well plate. Compounds were then titrated onto the 96-well plate using a suitable twofold dilution series from a 10× stock solution containing 10% v/v DMSO. Control wells were also treated with a 10% DMSO only stock solution to yield a final residual DMSO concentration of 1% v/v. The 96-well plates were then incubated for 4 h at 37 °C, with 5% CO2. Wells were then treated with a solution of Nano-Glo live substrate, which was prepared as per the manufacturer’s instructions. The plates were then shaken for 1 min at 22 °C and luminescence assessed after additional 50 min using an Envision Multi-Plate reader (Perkin-Elmer). Plates were then multiplexed with CellTiter-GLO 2.0 reagent (PROMEGA) and cellular viability determined according to the manufacturer’s instruction. NanoBit titration data was used to determine IC50 values for drug potency by fitting 4 parameter logistic curves using GraphPad Prism 7.0.

The next series deals with HEK293 cells. As to the kind of experiment: Cell viability by intracellular ATP (CellTiter-GLO) in HEK293 cells. It is filed as cell-based. To be noted: HEK293, 4-h treatment. As to the method:
as §3
A general note: In ATP-based viability assays light output follows the ATP content of the culture.

Series [2] deals with eIF4E:eIF4G^604–646 complex. As to the kind of experiment: NanoBit eIF4E:eIF4G^604–646 protein complementation assay in PANC-1 cells. It is filed as cell-based. As to the method:
as §2
as §3, with “Wells were then treated with a solution of Nano-Glo live substrate, which was prepared as per the manufacturer’s instructions.” left out, “NanoBit titration data was used to determine IC50 values for drug potency by fitting 4 parameter logistic curves using GraphPad Prism 7.0.” left out

Series [3] concerns eIF4E:eIF4G^604–646 complex. Description: NanoBit eIF4E:eIF4G^604–646 protein complementation assay in PC-3 cells. It is filed as cell-based. As to conditions: for Activity in NanoBit system: PC-3 cells, 4 h. As to the method: as §2, §3
For series [4], the system named is full-length NanoLuc luciferase. Description: Full-length NanoLuc luciferase counter-screen in HEK293 cells. It is filed as cell-based. To be noted: HEK293 transfected with full-length NanoLuc. (In general: Counterscreens check selectivity or assay interference.)
The next series concerns the target eIF4E-eIF4G interface. To be noted: published value; read-out: in vitro Kd; cited from earlier work.
For series [5], the system named is eIF4E S209 phosphorylation. Description: AlphaScreen Surefire eIF4E S209 phosphorylation assay in PC-3 cells. It is filed as cell-based. As to conditions: PC3 cells, 4E-BP1 protein levels high, normalised to GAPDH, read-out: pEIF4E SureFire (IC50). As to the method:
(§4) Ninety-six-well plates were seeded at 30,000 cells per well with non-transfected PC-3, PANC-1 or HKEK293 cells in DMEM with 10% FCS and incubated overnight. Cells were then washed with PBS and the media replaced with OPTI-MEM containing no serum. Cells were then treated with the indicated compounds. Controls were performed with DMSO vehicle treatments. Four hours post treatments, cells were lysed with 50 μl of passive lysis buffer (PerkinElmer) for 15 min and 10 μl of lysate from each well was transferred into a white bottom 384-well plate. GAPDH and pS209 eIF4E levels were assessed according to the manufacturer’s instructions (PerkinElmer) for each sample. Luminescence was measured using an Envision Multiplate reader (PerkinElmer).
(In general: Bead proximity is the source of the signal in Alpha formats.)

Series [6] relates to eIF4E S209 phosphorylation. Description: AlphaScreen Surefire eIF4E S209 phosphorylation assay in PANC-1 cells. It is filed as cell-based. As to the method:
as §4

The next series concerns PC-3 cells. As to the kind of experiment: Cell viability by intracellular ATP (CellTiter-GLO) in PC-3 cells. It is filed as cell-based. To be noted: NanoBit co-transfected PC-3 cells, 4 h. As to the method: as §3
Series [7] addresses T1, eIF4E:eIF4G^604–646 complex (Homo sapiens, UniProt P06730).
T1 construct: linked either to full-length eIF4E or the eIF4G^604–646 fragment; expressed in transfected cells; host or cells: HEK293
Description: NanoBit eIF4E:eIF4G^604–646 protein complementation assay in HEK293 cells. It is filed as cell-based. To be noted: HEK293, 4 h, normalised to DMSO and to full-length NanoLuc counter-screen; read-out: IC50, NanoBit eIF4E:eIF4G^604–646 signal. As to the method: as §1, §2, §3

Where [8] appears, read: HEK293, 4 h treatment, read-out: IC50, NanoBit eIF4E:eIF4G^604–646 signal.

T1 sequence (P06730 2-217, one chain of several): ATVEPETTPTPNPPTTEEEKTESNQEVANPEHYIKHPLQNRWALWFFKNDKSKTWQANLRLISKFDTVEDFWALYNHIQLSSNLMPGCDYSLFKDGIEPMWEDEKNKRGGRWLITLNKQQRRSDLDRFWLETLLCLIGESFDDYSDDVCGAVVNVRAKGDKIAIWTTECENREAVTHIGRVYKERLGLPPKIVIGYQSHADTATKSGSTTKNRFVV

Regarding `CO[C@H]1C[C@@H]2CC[C@@H](C)[C@@](O)(O2)C(=O)C(=O)N2CCCC[C@H]2C(=O)O[C@H]([C@H](C)C[C@@H]2CC[C@@H](O)[C@H](OC)C2)CC(=O)[C@H](C)/C=C(\C)[C@@H](O)[C@@H](OC)C(=O)[C@H](C)C[C@H](C)/C=C/C=C/C=C/1C` [Rapamycin], in series [1] (setting [8]), the IC50 amounted to 6880 ± 880 nM. Further, the “Effect on cell viability (intracellular ATP)” value (“Effect … (intracellular ATP)” for short) with HEK293 cells is on record as “neither Rapamycin, Torin nor PP242 affected the cells adversely”.

Take `CC(C)n1nc(-c2cc3cc(O)ccc3[nH]2)c2c(N)ncnc21` [PP242]: in the series with HEK293 cells, the “Effect … (intracellular ATP)” value is “neither Rapamycin, Torin nor PP242 affected the cells adversely”.

Regarding `Cn1c(=O)n(-c2ccc(C(C)(C)C#N)cc2)c2c3cc(-c4cnc5ccccc5c4)ccc3ncc21` [BEZ235], the “Activity in NanoBit system” value is listed as “dramatically attenuated” in series [2] (4 h) and “mid-nanomolar range” in series [3]. In series [1] (HEK293, 4 h, read-out: apparent IC50, NanoBit eIF4E:eIF4G^604–646 signal), the IC50 is 8 ± 0.7 nM. In [1] (HEK293, si4EBP1 versus siCtrl), the “Attenuation of potency by siRNA-mediated knockdown of 4EBP1” value is “substantially reduced”. Moreover, the “Extent of disruption of NanoBit signal / eIF4F complex” value in [1] is “achieved maximal inhibition of eIF4F activity”. Moreover, in [1] (HEK293 co-transfected with GFP-MYC versus GFP control), the “Decrease in potency on overexpression of GFP-MYC” value is reported as “over an order of magnitude”. Besides, in series [3] (PC3 cells, si4EBP1 versus siCtrl), the “Effect of siRNA 4EBP1 knockdown on activity” value was “strongly attenuated”.

For `O=C(O)C(Cc1ccccc1[N+](=O)[O-])=NNc1nc(-c2ccc(Cl)c(Cl)c2)cs1` (mixture of isomers) [4EGi-1], in [4], the “Inhibition of full-length luciferase signal (counter-screen)” value is listed as “Non-specific inhibition of the luciferase signal”. For the same compound, the “Extent of disruption of NanoBit signal / eIF4F complex” value in series [1] is given as “neither achieved complete disruption of the signal”. Further, the “Effect … (intracellular ATP)” value with HEK293 cells is reported as “only 4ER1Cat was observed to have an effect”. Besides, the Kd at eIF4E-eIF4G interface is 25000 nM.

Regarding `Nc1ncnc2n[nH]c(Nc3ccc(F)cc3)c12` [CGP57380], the “NanoBit eIF4E:4G (IC50, μM)” value in series [2] (4E-BP1 protein levels low) was “No Inhibition”; in [3] (PC3 cells, 4E-BP1 protein levels high), “No Inhibition”. The IC50 came to 3000 ± 1700 nM in series [5] and 6200 ± 1300 nM in series [6] (PANC cells, 4E-BP1 protein levels low, normalised to GAPDH, read-out: pEIF4E SureFire (IC50)). In addition, the “Effect on NanoBit luminescence signal in combination with Ipasertib versus Ipasertib alone” value in [1] (HEK293, CGP57380 at constant concentrations, 4 h) was “did not lead to a larger decrease of the luminescence signal”. The “Decrease in ability to prevent phosphorylation of eIF4E, PANC1 versus PC-3” value in series [6] (PANC1 cells compared with PC-3) was “twofold”. For the same compound, the “Activity in NanoBit system” value in [3] was “no decrease in the luminescence signal”. Besides, the “Effect on cell viability” value in the series on PC-3 cells is reported as “no decrease in the luminescence signal or decrease in cell viability”.

As to `O=C(Nc1ccc2[nH]nc(-c3ccncc3)c2c1)[C@@H]1CCN(CC(=O)N2CCN(c3ccc(-c4ncccn4)cc3)CC2)C1` [SCH772984], in series [1] (setting [8]), the IC50 is 2600 ± 1800 nM. In addition, in [1] (HEK293, SCH-772984 constant at 1 μM), the “Effect on eIF4F disruption in combination with Ipasertib titration” value was “additive effect”.

On to `CCC(=O)N1CCN(c2ccc(-n3c(=O)ccc4cnc5ccc(-c6cnc7ccccc7c6)cc5c43)cc2C(F)(F)F)CC1` [Torin], for which the IC50 in series [2] (4E-BP1 protein levels low, read-out: NanoBit eIF4E:4G (IC50)) came to 130 ± 30 nM; in series [5] (Homo sapiens, PC-3), 100 ± 20 nM; in series [1] (setting [8]), 60 ± 10 nM; in series [3] (PC3 cells, 4E-BP1 protein levels high, read-out: NanoBit eIF4E:4G (IC50)) it was 20 ± 10 nM. Further, the “Effect … (intracellular ATP)” value with HEK293 cells is “neither Rapamycin, Torin nor PP242 affected the cells adversely”. In addition, the “pEIF4E SureFire (IC50, μM)” value in [6] (PANC cells, 4E-BP1 protein levels low, normalised to GAPDH) is listed as “No Inhibition”.

For `CC(C)Nc1cc(-c2c[nH]c(C(=O)N[C@H](CO)c3cccc(Cl)c3)c2)c(Cl)cn1` [Ulixertinib], the IC50 in series [1] (setting [8]) is 4700 ± 1800 nM.

For `O=C(O)c1ccc(N2C(=O)/C(=C\c3ccc(-c4ccc([N+](=O)[O-])cc4)o3)C=C2c2ccccc2)cc1` [4E1RCat], the “Inhibition of full-length luciferase signal (counter-screen)” value in series [4] is recorded as “Non-specific inhibition of the luciferase signal”. Also, the IC50 in [7] was 600 ± 150 nM. For the same compound, the “Extent of disruption of NanoBit signal / eIF4F complex” value in series [1] is recorded as “neither achieved complete disruption of the signal”. For the same compound, the “Effect … (intracellular ATP)” value in the series on HEK293 cells is reported as “observed to have an effect”. Also, at eIF4E-eIF4G interface, the Kd was 3200 nM.

Consider `CC(C)NC[C@@H](C(=O)N1CCN(c2ncnc3c2[C@H](C)C[C@H]3O)CC1)c1ccc(Cl)cc1` [Ipasertib], for which the IC50 in [1] (setting [8]) came to 170 ± 24 nM.
